Legend:
[1] = target: T1, Purified recombinant NBD1 (Homo sapiens, UniProt P13569); experiment: Aggregation analysis using differential static light scattering (DSLS): thermal stability of NBD1; format: binding; conditions: NBD1 0.2 mg/ml; Tagg of compound well minus average Tagg of DMSO control wells
T1 construct: Purified recombinant NBD1 was produced using previously described methods; made in house
Procedure, shortened: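 Recombinant NBD1 at 0.2 mg/ml in Tris/NaCl/MgCl2 buffer with 2 mM ATP, 2 mM DTT, 1% glycerol, pH 7.6, was incubated with compound and heated at 1 °C/min to 70 °C while static light scattering was monitored. Tagg was taken from the curve inflection point and reported as ΔTagg relative to DMSO controls.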

[2] = test system: Primary human bronchial epithelial cells from a ΔF508 homozygous CF donor (CF-HBE cells); experiment: TECC24 recording of CFTR-mediated transepithelial chloride transport, AUC fold over benchmark VX-809 @10 μM; format: cell-based; conditions: 48 hours incubation, AUC of forskolin-stimulated IEQ
Procedure, shortened: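 CF-HBE cells on inserts were treated with compound for 48 h at 36.5 °C, then recorded in current-clamp with benzamil 10 μM, forskolin 10 μM, and finally CFTR inhibitor-172 20 μM in pH 7.4 Hepes saline. Equivalent Cl− current AUC between forskolin and inhibitor addition is expressed as a ratio to VX-809 AUC: A <3, B 3–6, C 6–20.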

T1 sequence (P13569 423-646 limits assumed): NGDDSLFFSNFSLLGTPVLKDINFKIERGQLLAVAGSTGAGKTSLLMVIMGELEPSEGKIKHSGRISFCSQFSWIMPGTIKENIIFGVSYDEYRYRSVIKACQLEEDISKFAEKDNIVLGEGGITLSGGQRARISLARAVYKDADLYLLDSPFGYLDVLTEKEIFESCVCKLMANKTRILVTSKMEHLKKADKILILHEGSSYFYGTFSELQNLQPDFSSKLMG

SMILES	DSLS (ΔTagg) [1]	TECC (test agent AUC divided by VX-809 AUC) [2]
CN1CC(C)(C)CCCC(C)(c2ccc(CCC(=O)O)cc2)c2cnc([nH]2)-c2cc(ccc2F)Oc2c(F)cc3[nH]ccc3c2CCC1=O (single isomer, unassigned) [Compound 47B, 3-[4-(23,29-Difluoro-6,10,10,12-tetramethyl-13-oxo-25-oxa-3,12,20,31-tetrazapentacyclo-[24.3.1.12,5.016,24.017,21]hentriaconta-1(30),2,4,16,18,21,23,26,28-nonaen-6-yl)phenyl]propanoic acid]	C (a value greater than 10 °C and less than or equal to 25 °C is marked “C”)	A (a TECC value less than 3 is marked “A”)
O=C(O)CCc1cccc(C2CCCNC(=O)CCc3c(c(F)cc4[nH]ccc34)Oc3ccc(F)c(c3)-c3ncc2[nH]3)c1 (stereo not drawn) [Compound 8, 3-[3-(21,27-Difluoro-11-oxo-23-oxa-3,10,18,29-tetrazapentacyclo[22.3.1.12,5.014,22.015,19]nonacosa-1(28),2,4,14,16,19,21,24,26-nonaen-6-yl)phenyl]propanoic acid]	C (a value greater than 10 °C and less than or equal to 25 °C is marked “C”)	A (a TECC value less than 3 is marked “A”)
[2H]C([2H])([2H])n1nc2nc1-c1cc(ccc1F)Oc1c(F)cc3[nH]ccc3c1CCC(=O)NCC(C)(C)CCCC2(C)c1cccc(CCC(=O)O)c1 (single isomer, unassigned) [Compound 76A, 3-[3-[23,29-difluoro-6,10,10-trimethyl-13-oxo-3-(trideuteriomethyl)-25-oxa-3,4,12,20,31-pentazapentacyclo[24.3.1.12,5.016,24.017,21]hentriaconta-1(30),2(31),4,16,18,21,23,26,28-nonaen-6-yl]phenyl]propanoic acid]	A (an ΔTagg value less than or equal to 5 °C is marked “A”)	A (a TECC value less than 3 is marked “A”)
CN1CC(C)(C)OCCC(C)(c2ccccc2)c2cnc([nH]2)-c2cc(ccc2F)Oc2c(F)cc3[nH]ccc3c2CCC1=O (stereo not drawn) [Compound 43, 23,29-Difluoro-6,10,10,12-tetramethyl-6-phenyl-9,25-dioxa-3,12,20,31-tetrazapentacyclo[24.3.1.12,5.016,24.017,21]hentriaconta-1(30),2,4,16,18,21,23,26,28-nonaen-13-one]	A (an ΔTagg value less than or equal to 5 °C is marked “A”)	A (a TECC value less than 3 is marked “A”)
CC(Cc1cccc(C2(C)CCCCC(C)(C)N(C)C(=O)OCc3c(c(F)cc4[nH]ccc34)Oc3ccc(F)c(c3)-c3nc2nn3C)c1)C(=O)O (stereo not drawn) [Compound 103, 3-[3-(23,29-difluoro-3,6,11,11,12-pentamethyl-13-oxo-14,25-dioxa-3,4,12,20,31-pentazapentacyclo[24.3.1.12,5.016,24.017,21]hentriaconta-1(30),2(31),4,16,18,21,23,26,28-nonaen-6-yl)phenyl]-2-methyl-propanoic acid]	C (a value greater than 10 °C and less than or equal to 25 °C is marked “C”)	A (a TECC value less than 3 is marked “A”)
CC1(C)CCCCC(C)(c2cccc(CCC(=O)O)c2)c2cnc([nH]2)-c2cc(ccc2F)Oc2c(F)cc3[nH]ccc3c2COC(=O)N1 (stereo not drawn) [Compound 88, 3-[3-(23,29-Difluoro-6,11,11-trimethyl-13-oxo-14,25-dioxa-3,12,20,31-tetrazapentacyclo[24.3.1.12,5.016,24.017,21]hentriaconta-1(30),2,4,16,18,21,23,26,28-nonaen-6-yl)phenyl]propanoic acid]	C (a value greater than 10 °C and less than or equal to 25 °C is marked “C”)	B (a value between 3 and 6 is marked “B”)
CN1CC(C)(C)CCCC(c2cccc(CCC(=O)O)c2)c2cnc([nH]2)-c2cc(ccc2F)Oc2c(F)cc3[nH]ccc3c2CCC1=O (stereo not drawn) [Compound 41, 3-[3-(23,29-Difluoro-10,10,12-trimethyl-13-oxo-25-oxa-3,12,20,31-tetrazapentacyclo[24.3.1.12,5.016,24.017,21]hentriaconta-1(30),2,4,16,18,21,23,26,28-nonaen-6-yl)phenyl]propanoic acid]	B (a value above 5 °C and less than or equal to 10 °C is marked “B”)	B (a value between 3 and 6 is marked “B”)
CC(Cc1cccc(C2(C)CCCCS(=O)(=O)NC(=O)CCc3c(c(F)cc4[nH]ccc34)Oc3ccc(F)c(c3)-c3nc2nn3C)c1)C(=O)O (stereo not drawn) [Compound 114, 3-[3-(23,29-Difluoro-3,6-dimethyl-11,11,13-trioxo-25-oxa-11λ6-thia-3,4,12,20,31-pentazapentacyclo[24.3.1.12,5.016,24.017,21]hentriaconta-1(30),2(31),4,16,18,21,23,26,28-nonaen-6-yl)phenyl]-2-methyl-propanoic acid]	C (a value greater than 10 °C and less than or equal to 25 °C is marked “C”)	A (a TECC value less than 3 is marked “A”)
CC1(C)CCCCC(C)(c2cccc(CCC(=O)O)c2)c2cnc([nH]2)-c2cc(ccc2F)Oc2c(F)cc3[nH]ccc3c2COC(=O)N1 (single isomer, unassigned) [Compound 93A, 3-[3-(23,29-difluoro-6,11,11-trimethyl-13-oxo-14,25-dioxa-3,12,20,31-tetrazapentacyclo[24.3.1.12,5.016,24.017,21]hentriaconta-1(30),2,4,16,18,21,23,26,28-nonaen-6-yl)phenyl]propanoic acid]	A (an ΔTagg value less than or equal to 5 °C is marked “A”)	B (a value between 3 and 6 is marked “B”)
CN1CC(C)(C)CCCC(C)(c2cccc(CCC(=O)O)c2)c2cnc([nH]2)-c2cc(ccc2F)Oc2c(F)c(F)c3[nH]ccc3c2CCC1=O (stereo not drawn) [Compound 70, 3-[3-(22,23,29-Trifluoro-6,10,10,12-tetramethyl-13-oxo-25-oxa-3,12,20,31-tetrazapentacyclo[24.3.1.12,5.016,24.017,21]hentriaconta-1(30),2,4,16,18,21,23,26,28-nonaen-6-yl)phenyl]propanoic acid]	C (a value greater than 10 °C and less than or equal to 25 °C is marked “C”)	A (a TECC value less than 3 is marked “A”)
CC1(c2cccc(CCC(=O)O)c2)CCCCCC(=O)NCC(O)Cc2c(c(F)cc3[nH]ccc23)Oc2ccc(F)c(c2)-c2ncc1[nH]2 (stereo not drawn) [Compound 110, 3-[3-(24,30-Difluoro-15-hydroxy-6-methyl-12-oxo-26-oxa-3,13,21,32-tetrazapentacyclo[25.3.1.12,5.017,25.018,22]dotriaconta-1(31),2,4,17,19,22,24,27,29-nonaen-6-yl)phenyl]propanoic acid]	C (a value greater than 10 °C and less than or equal to 25 °C is marked “C”)	B (a value between 3 and 6 is marked “B”)
Cn1nc2nc1-c1cc(ccc1F)Oc1c(F)cc3[nH]ccc3c1COC(=O)NC(C)(C)CCCC2(C)c1cccc(CCC(=O)O)c1 (single isomer, unassigned) [Compound 99B, 3-[3-(22,28-difluoro-3,6,10,10-tetramethyl-12-oxo-13,24-dioxa-3,4,11,19,30-pentazapentacyclo-[23.3.1.12,5.015,23.016,20]-triaconta-1(29),2(30),4,15,17,20,22,25,27-nonaen-6-yl)phenyl]propanoic acid]	A (an ΔTagg value less than or equal to 5 °C is marked “A”)	B (a value between 3 and 6 is marked “B”)
CN1CC(C)(C)CCCC(c2cccc(CCC(=O)O)c2F)c2cnc([nH]2)-c2cc(ccc2F)Oc2c(F)cc3[nH]ccc3c2CCC1=O (stereo not drawn) [Compound 28, 3-[3-(23,29-Difluoro-10,10,12-trimethyl-13-oxo-25-oxa-3,12,20,31-tetrazapentacyclo[24.3.1.12,5.016,24.017,21]hentriaconta-1(30),2,4,16,18,21,23,26,28-nonaen-6-yl)-2-fluoro-phenyl]propanoic acid]	C (a value greater than 10 °C and less than or equal to 25 °C is marked “C”)	A (a TECC value less than 3 is marked “A”)
CN1CC(C)(C)CCC(C)(c2cccc(CCC(=O)O)c2)c2nc(n(C)n2)-c2cc(ccc2F)Oc2c(F)cc3[nH]ccc3c2CCC1=O (single isomer, unassigned) [Compound 75A, 3-[3-(22,28-difluoro-3,6,9,9,11-pentamethyl-12-oxo-24-oxa-3,4,11,19,30-pentazapentacyclo[23.3.1.12,5.015,23.016,20]triaconta-1(29),2(30),4,15,17,20,22,25,27-nonaen-6-yl)phenyl]propanoic acid]	B (a value above 5 °C and less than or equal to 10 °C is marked “B”)	B (a value between 3 and 6 is marked “B”)
CC1(C)CCCC(c2cccc(CCC(=O)O)c2)n2ccc(n2)-c2cc(ccc2F)Oc2c(F)cc3[nH]ccc3c2CCOC(=O)N1 (single isomer, unassigned) [Compound 95A, 3-[3-(23,29-difluoro-10,10-dimethyl-12-oxo-13,25-dioxa-5,11,20,31-tetrazapentacyclo-[24.3.1.12,5.016,24.017,21]hentriaconta-1(30),2(31),3,16(24),17(21),18,22,26,28-nonaen-6-yl)phenyl]propanoic acid]	B (a value above 5 °C and less than or equal to 10 °C is marked “B”)	B (a value between 3 and 6 is marked “B”)

Source: patent publication US20250197420A1, “MACROCYCLIC COMPOUNDS, COMPOSITIONS, AND METHODS OF USING THEREOF” (Sionna Therapeutics Inc., priority 2022, published 2025)
